# Reference: ChEMBL document CHEMBL1201862, “PubChem BioAssay data set” (2004)
#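 The compound was tested at five concentrations on cells cultured in 96-well plates, with a 48-hour exposure period. GI50 marks 50% less growth.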 Active and inactive are the calls of the source. Cut-off read from the data, not from the text of the source: active = GI50 up to about 1.1 µM and inactive = higher.
# Key:
# Test in all cases: inhibition of tumour cell growth, NCI panel, 48 h
# LOX IMVI = system: LOX IMVI
# HOP-92 = system: HOP-92
# SR = system: SR
# Hs-578T = system: Hs-578T
# CAKI-1 = system: CAKI-1
# OVCAR-8 = system: OVCAR-8
# SF-539 = system: SF-539
# SK-MEL-5 = system: SK-MEL-5
# OVCAR-4 = system: OVCAR-4
# UACC-257 = system: UACC-257
# ACHN = system: ACHN
# COLO 205 = system: COLO 205
# DU-145 = system: DU-145
# NCI-H23 = system: NCI-H23
# IGROV-1 = system: IGROV-1
# SK-MEL-2 = system: SK-MEL-2
# SW-620 = system: SW-620
# SK-MEL-28 = system: SK-MEL-28
# PC-3 = system: PC-3
# SF-295 = system: SF-295
# HCT-15 = system: HCT-15
# MDA-MB-435 = system: MDA-MB-435
# SNB-75 = system: SNB-75
# SK-OV-3 = system: SK-OV-3
# EKVX = system: EKVX
# TK-10 = system: TK-10
# UACC-62 = system: UACC-62
# OVCAR-3 = system: OVCAR-3
# U-251 = system: U-251
# KM12 = system: KM12
# A549 = system: A549
# HCT-116 = system: HCT-116
# MDA-N = system: MDA-N
# HL-60 = system: HL-60
# 786-0 = system: 786-0
# BT-549 = system: BT-549
# RPMI-8226 = system: RPMI-8226
# NCI-H522 = system: NCI-H522
# T47D = system: T47D
# MOLT-4 = system: MOLT-4
# CCRF-CEM = system: CCRF-CEM
# HT-29 = system: HT-29
# K562 = system: K562
# MCF7 = system: MCF7
# NCI/ADR-RES = system: NCI/ADR-RES
# OVCAR-5 = system: OVCAR-5
# UO-31 = system: UO-31
# NCI-H226 = system: NCI-H226
# SF-268 = system: SF-268
# Malme-3M = system: Malme-3M
# NCI-H460 = system: NCI-H460
# HCC 2998 = system: HCC 2998
# SN12C = system: SN12C
# MDA-MB-231 = system: MDA-MB-231
# M14 = system: M14
# SNB-19 = system: SNB-19
# HOP-62 = system: HOP-62
# RXF 393 = system: RXF 393
# A498 = system: A498
compound,measurement,setting,value
C/C(=N\NC(=O)Nc1ccccc1Cl)c1ccc(O)cc1,GI50,LOX IMVI,45.6 µM (inactive)
same,GI50,HOP-92,> 100 µM (inactive)
same,GI50,SR,4.34 µM (inactive)
same,GI50,Hs-578T,> 100 µM (inactive)
same,GI50,CAKI-1,> 100 µM (inactive)
same,GI50,OVCAR-8,> 100 µM (inactive)
same,GI50,SF-539,> 100 µM (inactive)
same,GI50,SK-MEL-5,> 100 µM (inactive)
same,GI50,OVCAR-4,> 100 µM (inactive)
same,GI50,UACC-257,> 100 µM (inactive)
same,GI50,ACHN,> 100 µM (inactive)
same,GI50,COLO 205,> 100 µM (inactive)
same,GI50,DU-145,> 100 µM (inactive)
same,GI50,NCI-H23,> 100 µM (inactive)
same,GI50,IGROV-1,> 100 µM (inactive)
same,GI50,SK-MEL-2,> 100 µM (inactive)
same,GI50,SW-620,> 100 µM (inactive)
same,GI50,SK-MEL-28,> 100 µM (inactive)
same,GI50,PC-3,> 100 µM (inactive)
same,GI50,SF-295,> 100 µM (inactive)
same,GI50,HCT-15,2.28 µM
same,GI50,MDA-MB-435,> 100 µM (inactive)
same,GI50,SNB-75,34.1 µM (inactive)
same,GI50,SK-OV-3,> 100 µM (inactive)
same,GI50,EKVX,> 100 µM (inactive)
same,GI50,TK-10,> 100 µM (inactive)
same,GI50,UACC-62,> 100 µM (inactive)
same,GI50,OVCAR-3,> 100 µM (inactive)
same,GI50,U-251,77.6 µM (inactive)
same,GI50,KM12,> 100 µM (inactive)
same,GI50,A549,> 100 µM (inactive)
same,GI50,HCT-116,48.6 µM (inactive)
same,GI50,MDA-N,> 100 µM (inactive)
same,GI50,HL-60,> 100 µM (inactive)
same,GI50,786-0,> 100 µM (inactive)
same,GI50,BT-549,> 100 µM (inactive)
same,GI50,RPMI-8226,> 100 µM (inactive)
same,GI50,NCI-H522,> 100 µM (inactive)
same,GI50,T47D,> 100 µM (inactive)
same,GI50,MOLT-4,7.85 µM (inactive)
same,GI50,CCRF-CEM,> 100 µM (inactive)
same,GI50,HT-29,> 100 µM (inactive)
same,GI50,K562,8.02 µM (inactive)
same,GI50,MCF7,> 100 µM (inactive)
same,GI50,NCI/ADR-RES,> 100 µM (inactive)
same,GI50,OVCAR-5,> 100 µM (inactive)
same,GI50,UO-31,> 100 µM (inactive)
same,GI50,NCI-H226,> 100 µM (inactive)
same,GI50,SF-268,> 100 µM (inactive)
same,GI50,Malme-3M,> 100 µM (inactive)
same,GI50,NCI-H460,20.9 µM (inactive)
same,GI50,HCC 2998,> 100 µM (inactive)
same,GI50,SN12C,> 100 µM (inactive)
same,GI50,MDA-MB-231,> 100 µM (inactive)
same,GI50,M14,> 100 µM (inactive)
same,GI50,SNB-19,> 100 µM (inactive)
CC1(c2nc3cc(Cl)c(Cl)cc3[nH]2)CCC(C(=O)O)C(C)(C)O1 (stereo not drawn),GI50,LOX IMVI,> 100 µM (inactive)
same,GI50,HOP-92,> 100 µM (inactive)
same,GI50,SR,> 100 µM (inactive)
same,GI50,Hs-578T,> 100 µM (inactive)
same,GI50,CAKI-1,> 100 µM (inactive)
same,GI50,OVCAR-8,> 100 µM (inactive)
same,GI50,SF-539,> 100 µM (inactive)
same,GI50,SK-MEL-5,> 100 µM (inactive)
same,GI50,OVCAR-4,78.9 µM (inactive)
same,GI50,UACC-257,> 100 µM (inactive)
same,GI50,ACHN,> 100 µM (inactive)
same,GI50,COLO 205,> 100 µM (inactive)
same,GI50,DU-145,> 100 µM (inactive)
same,GI50,NCI-H23,> 100 µM (inactive)
same,GI50,IGROV-1,> 100 µM (inactive)
same,GI50,SK-MEL-2,> 100 µM (inactive)
same,GI50,SW-620,> 100 µM (inactive)
same,GI50,SK-MEL-28,> 100 µM (inactive)
same,GI50,PC-3,> 100 µM (inactive)
same,GI50,SF-295,> 100 µM (inactive)
same,GI50,HCT-15,> 100 µM
same,GI50,MDA-MB-435,> 100 µM (inactive)
same,GI50,SNB-75,> 100 µM (inactive)
same,GI50,SK-OV-3,> 100 µM (inactive)
same,GI50,EKVX,> 100 µM (inactive)
same,GI50,TK-10,> 100 µM (inactive)
same,GI50,UACC-62,> 100 µM (inactive)
same,GI50,OVCAR-3,> 100 µM (inactive)
same,GI50,U-251,> 100 µM (inactive)
same,GI50,KM12,> 100 µM (inactive)
same,GI50,A549,> 100 µM (inactive)
same,GI50,HCT-116,> 100 µM (inactive)
same,GI50,MDA-N,> 100 µM (inactive)
same,GI50,HL-60,> 100 µM (inactive)
same,GI50,786-0,> 100 µM (inactive)
same,GI50,BT-549,> 100 µM (inactive)
same,GI50,RPMI-8226,> 100 µM (inactive)
same,GI50,NCI-H522,> 100 µM (inactive)
same,GI50,T47D,> 100 µM (inactive)
same,GI50,MOLT-4,> 100 µM (inactive)
same,GI50,CCRF-CEM,> 100 µM (inactive)
same,GI50,HT-29,> 100 µM (inactive)
same,GI50,K562,> 100 µM (inactive)
same,GI50,MCF7,> 100 µM (inactive)
same,GI50,NCI/ADR-RES,> 100 µM (inactive)
same,GI50,OVCAR-5,> 100 µM (inactive)
same,GI50,UO-31,34.8 µM (inactive)
same,GI50,NCI-H226,> 100 µM (inactive)
same,GI50,HOP-62,> 100 µM (inactive)
same,GI50,RXF 393,> 100 µM (inactive)
same,GI50,SF-268,> 100 µM (inactive)
same,GI50,Malme-3M,> 100 µM (inactive)
same,GI50,HCC 2998,> 100 µM (inactive)
same,GI50,SN12C,> 100 µM (inactive)
same,GI50,MDA-MB-231,> 100 µM (inactive)
same,GI50,M14,> 100 µM (inactive)
same,GI50,SNB-19,> 100 µM (inactive)
Nn1c(CCCCCCCCc2nnc(COc3ccccc3)n2N)nnc1COc1ccccc1,GI50,LOX IMVI,> 100 µM (inactive)
same,GI50,HOP-92,> 100 µM (inactive)
same,GI50,Hs-578T,> 100 µM (inactive)
same,GI50,CAKI-1,> 100 µM (inactive)
same,GI50,OVCAR-8,> 100 µM (inactive)
same,GI50,SK-MEL-5,> 100 µM (inactive)
same,GI50,OVCAR-4,> 100 µM (inactive)
same,GI50,UACC-257,> 100 µM (inactive)
same,GI50,ACHN,> 100 µM (inactive)
same,GI50,COLO 205,> 100 µM (inactive)
same,GI50,DU-145,> 100 µM (inactive)
same,GI50,NCI-H23,> 100 µM (inactive)
same,GI50,IGROV-1,> 100 µM (inactive)
same,GI50,SK-MEL-2,> 100 µM (inactive)
same,GI50,SW-620,> 100 µM (inactive)
same,GI50,SK-MEL-28,> 100 µM (inactive)
same,GI50,PC-3,> 100 µM (inactive)
same,GI50,SF-295,> 100 µM (inactive)
same,GI50,HCT-15,> 100 µM
same,GI50,MDA-MB-435,> 100 µM (inactive)
same,GI50,SNB-75,88.1 µM (inactive)
same,GI50,SK-OV-3,> 100 µM (inactive)
same,GI50,EKVX,> 100 µM (inactive)
same,GI50,TK-10,> 100 µM (inactive)
same,GI50,UACC-62,> 100 µM (inactive)
same,GI50,U-251,> 100 µM (inactive)
same,GI50,KM12,> 100 µM (inactive)
same,GI50,A549,> 100 µM (inactive)
same,GI50,HCT-116,> 100 µM (inactive)
same,GI50,MDA-N,> 100 µM (inactive)
same,GI50,HL-60,> 100 µM (inactive)
same,GI50,786-0,> 100 µM (inactive)
same,GI50,BT-549,> 100 µM (inactive)
same,GI50,RPMI-8226,> 100 µM (inactive)
same,GI50,A498,> 100 µM (inactive)
same,GI50,NCI-H522,> 100 µM (inactive)
same,GI50,T47D,> 100 µM (inactive)
same,GI50,MOLT-4,> 100 µM (inactive)
same,GI50,HT-29,> 100 µM (inactive)
same,GI50,K562,> 100 µM (inactive)
same,GI50,MCF7,> 100 µM (inactive)
same,GI50,NCI/ADR-RES,> 100 µM (inactive)
same,GI50,OVCAR-5,> 100 µM (inactive)
same,GI50,UO-31,> 100 µM (inactive)
same,GI50,NCI-H226,> 100 µM (inactive)
same,GI50,HOP-62,> 100 µM (inactive)
same,GI50,RXF 393,> 100 µM (inactive)
same,GI50,SF-268,> 100 µM (inactive)
same,GI50,Malme-3M,> 100 µM (inactive)
same,GI50,NCI-H460,> 100 µM (inactive)
same,GI50,HCC 2998,> 100 µM (inactive)
same,GI50,SN12C,> 100 µM (inactive)
same,GI50,MDA-MB-231,> 100 µM (inactive)
same,GI50,M14,> 100 µM (inactive)
same,GI50,SNB-19,> 100 µM (inactive)
